From US20140294729A1, “METHODS FOR IDENTIFICATION AND USE OF AGENTS TARGETING CANCER STEM CELLS” (Whitehead Institute for Biomedical Research, priority 2008, published 2014)

How the values were obtained:
Format in all cases: cell-based, human
[1] = tested on: HMLERshEcad cells; assay: Resistance to cytotoxic agents, transformed HMLERshCntrl vs HMLERshEcad dose response; conditions: FIG. 2A
Description: (§1) FIGS. 2A-2D depict that passage through the EMT leads to resistance to conventional chemotherapy drugs. FIG. 2A depicts dose response curves of transformed HMLERshCntrl (light gray line) and HMLERshEcad (dark gray line) cells treated with Paclitaxel and Doxorubicin. Dotted line denotes the 50% fraction surviving. […] FIG. 2B depicts the response of immortalized cells to chemotherapy drugs. HMLEshCntrl and HMLEshEcad cells were treated with the indicated drugs at three concentrations for 3 days and assayed for viability using the MTS assay. While Doxorubucin, Actinomycin D, Paclitaxel and Campthotecin are chemotherapeutic drugs, Staurosporine is a general kinase inhibitor that potently induce apoptosis. FIGS. 2C and 2D depict paclitaxel treatment leads to selective expansion of a minority cell population that has undergone an EMT. Control HMLE cells and GFP expressing HMLEshEcad cells were mixed at a ratio of 20:1 and seeded onto 6-well plates in triplicate. DMSO or Paclitaxel at 2.5 nm or 10 nm concentration was added onto the mixed cell populations 1 day after seeding followed by a 3 day incubation. The number of GFP-positive cells at the end of treatment were analyzed by flow cytometry. […] Note the increase in GFP positivity from 5% to 14% upon […] Paclitaxel treatment.
Since the HMLERsiEcad cells have a 100-fold increase in the frequency of cells capable of seeding tumors, we examined their response to two commonly used chemotherapy drugs, relative to HMLERsiGFP controls. We treated cultured HMLERsiGFP and HMLERsiEcad cells for a period of 3 days with either doxorubicin or paclitaxel, at various concentrations.
(§2) Doxorubicin, paclitaxel, actinomycin D, campthotecin and staurosporine were purchased from Sigma and dissolved in dimethyl sulfoxide (dmso). 5000 cells in 100 ul of medium were plated per well in 96-well plates. 24 hrs after seeding, compounds at the indicated concentration were added to wells (5 wells per each concentration). Dmso treatment was used as negative control. Cell viability was measured after 72 hrs using the CellTiter96 AQueous Assay (Promega) according to manufacturer's instructions. Dose response curves were generated with GraphPad Prism software (GraphPad Software, Inc.).

[2] = tested on: HMLEshEcad cells; assay: Co-culture of GFP-labeled HMLEshEcad cells and control HMLE cells (1:20), FACS for GFP positivity
Description: as §1
To further characterize the observed drug resistance, we paclitaxel-treated co-cultures of GFP-labeled HMLEshEcad cells and unlabeled controls cells (1:20 ratio).
This was observed independently of whether or not the cell lines had undergone neoplastic transformation. To determine the effect of conventional chemotherapy drugs on a mixture of epithelial cells that have and epithelial cells that have not undergone EMT, we co-mixed GFP-labeled HMLEsiEcad cells with unlabeled HMLEsiGFP cells at a ratio of 1:20, and treated the resulting co-culture with Paclitaxel. This non-stoichiometric mixture provided an internally controlled method to evaluate whether differential drug sensitivity was also manifest under conditions in which epithelial cells having undergone EMT were in the minority.
For the mix experiments, unlabelled and GFP-labeled cells were mixed at the indicated ratios and seeded onto 6-well plates. Triplicate wells were then treated with dmso or the compounds (paclitaxel, salinomycin, abamectin and blasticidin) for 48 hrs. The cells were washed with PBS, trypsinized and analyzed by FACS for GFP positivity.

[3] = tested on: HMLEshEcad cells; assay: Resistance to cytotoxic agents, immortalized HMLEshCntrl vs HMLEshEcad (MTS viability); conditions: three concentrations, FIG. 2B
Description: as §1
However, we postulated that the differential drug sensitivity observed was, rather, a consequence of the respective differentiation states of the immortalized cells from which the cancer cell lines were derived. To directly examine this hypothesis, we treated HMLEsiGFP and HMLEsiEcad cells for a period of […] with a series of chemical compounds at 3 different concentrations each. Included in these compounds were the established chemotherapy drugs Doxorubicin, Paclitaxel, Actinomycin D, Camptothecin as well as a broad kinase inhibitor, Staurosporine.
as §2

[4] = tested on: HMLER cells; assay: Growth rate of HMLER cultures after treatment; conditions: FIG. 6B
Description: FIGS. 6A and 6B depict effects of salinomycin on the CSC population in HMLER cell line. (FIG. 6A) HMLER cells were treated with vehicle control (dmso), salinomycin or paclitaxel at the indicated concentrations for 15 days. FACS analysis were performed at the end of treatment to gauge the CD44+/CD24− CSC population (right panels). Note that salinomycin decreases the CD44+/CD24− population from a basal of 4.9% to 0.2%. Treated cultures were also subjected to the mammosphere formation assay (left panels). Number of mammopsheres formed per 1000 cells from each culture are indicated below the representative photographs of assay wells. (FIG. 6B) Growth rates of HMLER cultures after treatment with vehicle control (dmso), salinomycin or paclitaxel at the indicated concentrations in (A) for 15 days.
We then turned to the critical question of whether the compounds had the general ability to inhibit CSCs in breast cancer cell lines. […] We next compared the effects of salinomycin, control vehicle DMSO and paclitaxel on HMLER cells. […] The CD44+/CD24− fraction was thus 360-fold lower following treatment with salinomycin than with paclitaxel (FIG. 6A). Proliferation of the bulk population was not inhibited following treatment with salinomycin relative to either vehicle- or paclitaxel-treatment (FIG. 6B).

[5] = tested on: HMLE-Twist cells; assay: Dose-response viability of HMLEshCntrl vs HMLE-Twist cells; conditions: EMT induced by Twist, FIG. 4B
Description: FIG. 4A depicts dose response curves of HMLEshCntrl (A, light gray curve) and HMLEshEcad (A, dark gray curve) cells treated with the 8 compounds identified during the initial screen. 1000 cells of each line were seeded onto 384 well plates and treated with 8 different concentrations of compounds within a 2.5 log range. The cell viability after 3 day treatment was measured by Cell-Titer-Glo. […] FIG. 4B depicts dose response curves of HMLEshCntrl (curve with square data points) and HMLE-Twist (curve with triangular data points) cells treated with the same compounds as in (A). Note that selectivity of Salinomycin, Abamectin, Etoposide and Nigericin (Top, Left-to-Right) is retained even though a different method of EMT induction is used. […] 1 Day after seeding DMSO, Salinomycin (1.25 or 5 μM) or Abamectin (0.25 or 1.25 μM) was added at the indicated concentration. As the GFP vector contains a Blasticidin resistance gene, we used Blasticidin treatment as a positive control for the expansion of GFP-expressing control HMLE cells. After 3 day incubation the mix population of cells were analyzed by flow cytometry and the percentage of GFP-positive cells were determined. […] FIG. 4D depicts dose response curves of transformed HMLERshCntrl (light gray line) and HMLERshEcad (dark gray lines) cells treated with Salinomycin and Abamectin. Dotted line denotes the 50% fraction surviving.
Individual compounds were purchased from Sigma and dissolved in DMSO with the exception of nigericin which was dissolved in 100% ethanol. Activity of the compounds were quantified by generating dose-response curves for HMLE-shCntrl, HMLE-shEcad and HMLE-Twist under the same cell density and culture conditions described for the initial screen, using the 384-well plate based system.

| Compound | IC50 for HMLERsiEcad cells relative to IC50 for HMLERsiGFP cells ([1]; 3 days, various concentrations) | resistance of HMLERshEcad cells compared to HMLERshCntrl cells [1] | resistance of HMLERshEcad cells compared to HMLERshCntrl cells ([1]; listed as Paclitaxel) | increase in HMLEsiEcad cells having undergone EMT ([2]; 2.5 nM) | increase in HMLEsiEcad cells having undergone EMT relative to DMSO-treated co-cultures ([2]; 10 nM, after 3 days, 1:20 ratio) [fold] | increase in the proportion of HMLEshEcad cells compared to DMSO-treated co-cultures ([2]; 10 nM, treatment for 4 days, 1:20 ratio) [fold] | GFP positivity after treatment (from 5%) ([2]; 3 day incubation) [%] | resistance of HMLEshEcad cells relative to HMLEshCntrl control cells [3] | proliferation of the bulk population relative to vehicle- or paclitaxel-treatment [4] | selectivity for HMLE-Twist cells vs HMLEshCntrl; dose-response curves compared with HMLEshEcad [5] |
| --- | --- | --- | --- | --- | --- | --- | --- | --- | --- | --- |
| CC(=O)O[C@H]1C(=O)[C@@]2(C)[C@H]([C@H](OC(=O)c3ccccc3)[C@]3(O)C[C@H](OC(=O)[C@H](O)[C@@H](NC(=O)c4ccccc4)c4ccccc4)C(C)=C1C3(C)C)[C@]1(OC(C)=O)CO[C@@H]1C[C@@H]2O [paclitaxel] | significantly higher | significantly more resistant | more resistant | more modest increase | 4 | 4 | 14 | increased resistance |  |  |
| CC[C@@H](C(=O)[C@@H](C)[C@@H](O)[C@H](C)[C@@H]1O[C@@H]([C@@H](CC)C(=O)O)CC[C@@H]1C)[C@H]1O[C@]2(C=C[C@@H](O)[C@]3(CC[C@@](C)([C@H]4CC[C@](O)(CC)[C@H](C)O4)O3)O2)[C@H](C)C[C@@H]1C [salinomycin] |  |  |  |  |  |  |  |  | not inhibited | is retained |
